Assay results as given in US11285142B2, “Compositions and methods for identifying and treating dystonia disorders” (DUKE UNIVERSITY, priority 2015, dated 2022).

Experiments:
[1] = tested on: WT Torsin1a localization in Flp-In T-REx 293 cells expressing EGFP-WT Torsin1a; experiment: Torsin1a localization assay in WT Torsin1a-expressing assay cell line; format: cell-based, human; settings: WT Torsin1a-expressing cell line, dose response
Text: To develop an assay capable of detecting conditions that correct a dystonia cellular phenotype, two human cell lines were generated that stably expressed EGFP-tagged human wild-type Torsin 1A, or delta-E Torsin1a, from a single cDNA copy integrated at a defined genomic site (FIG. 1, panel 1).
To limit variation in expression levels associated with random integration or transient expression, single copies of either WT or delta-E human TOR1A cDNAs with N-terminal EGFP fusions were inserted at the FRT site in Flp-In™ T-Rex™ 293 cells (Thermo Fisher Scientific #R780-07) via flippase recombinase-mediated cassette exchange according to the manufacturer's recommended protocols. This system includes an inducible expression feature (TetON) that avoids selective pressure for potential toxic effects of chronic expression of mutant proteins (FIG. 1, panel 1). […]
This approach provides control over expression levels, avoiding the wide variation typically seen with random genomic integration or transient expression approaches. […] The mutant phenotype was measured as the percentage of cells with one or more EGFP puncta using automated high-content imaging analysis (see infra).
Development and validation of the high-content image analysis and assay performance under high-throughput screening conditions is presented in FIG. 9. […] Automated exposure times for each plate were determined by setting a target saturation of 25% in channel 1 in wells containing tetracycline-induced delta-E cells. Detected cells were gated according to nuclear area, length-to-width ratio, and perimeter-to-area ratio. […] EGFP fluorescence (Ch2: excitation 488 nm; emission 509 nm) was used for puncta detection. Automated exposure times for each plate were determined by setting a target saturation of 35% in channel 2 in wells containing induced delta-E cells. […]

[2] = tested on: cortico-striatal synapse LTD (striatal projection neurons); experiment: Long-term depression at the cortico-striatal synapse, whole-cell electrophysiology in acute brain slices; format: cell-based, mouse
Description: To directly test these predictions, whole-cell electrophysiology of striatal projection neurons was performed in acute brain slices to induce long-term depression in the presence of eIF2-alpha pathway-modulating drugs. Acute horizontal brain slices from the progeny of heterozygous ΔE Torsin1a knockin×homozygous Drd1a-tdTomato mice (age P15-21) were prepared largely as described in (Trusel et al., 2015, Cell Rep. 13, 1353-65). LTD was induced as in Trusel et al., 2015, with modifications.
Heterozygous delGAG Torsin1a knockin mice (courtesy of Dr. W. Dauer, University of Michigan) were crossed with homozygous Drd1a-tdTomato mice (Jackson Labs) and the progeny was used at postnatal day 15-21 for experiments. […]
Single slices were transferred to a recording chamber and superfused continuously with ACSF containing 50 μM picrotoxin at 32° C. and 3-4 mL/min. […] Evoked excitatory postsynaptic potentials (EPSPs) were recorded in the dorsolateral striatum, while stimulating every 30 seconds with a concentric bipolar electrode (FHC) in cortical layer V (see Trusel et al., Cell Reports, 2015). […] Baseline EPSPs were recorded for at least 10 min or until a stable baseline was reached. Data were acquired by pClamp v10 and analyzed using Clampfit v10.4, Origin v8.0, and GraphPad Prism v6.

O=C(COc1ccc(Cl)cc1)NC1CCC(NC(=O)COc2ccc(Cl)cc2)CC1 (stereo not drawn) [ISRIB]
effect on WT Torsin1a localization (cells with punctate Torsin1a, in words) [1]: dose-dependent increase
LTD in WT brain slices ([2]; pre-incubation 5 nM, WT mice): robustly inhibited LTD

O=C(/C=C/c1ccccc1)NC(NC(=S)Nc1ccc(Cl)cc1)C(Cl)(Cl)Cl (stereo not drawn) [Sal-003]
long-term depression in brain slices of mice heterozygous for DYT1 knockin mutation (delGAG) ([2]; 20 μM, vs vehicle-treated slices): restored long-term depression
